The values that follow come from ChEMBL document CHEMBL1130147, “Dihydrobenzofuran analogues of hallucinogens. 4. Mescaline derivatives” (J Med Chem, 1997).

The target of series [1] is T1, 5-hydroxytryptamine receptor 1A (Rattus norvegicus, UniProt P19327).
T1 sequence (P19327 whole entry): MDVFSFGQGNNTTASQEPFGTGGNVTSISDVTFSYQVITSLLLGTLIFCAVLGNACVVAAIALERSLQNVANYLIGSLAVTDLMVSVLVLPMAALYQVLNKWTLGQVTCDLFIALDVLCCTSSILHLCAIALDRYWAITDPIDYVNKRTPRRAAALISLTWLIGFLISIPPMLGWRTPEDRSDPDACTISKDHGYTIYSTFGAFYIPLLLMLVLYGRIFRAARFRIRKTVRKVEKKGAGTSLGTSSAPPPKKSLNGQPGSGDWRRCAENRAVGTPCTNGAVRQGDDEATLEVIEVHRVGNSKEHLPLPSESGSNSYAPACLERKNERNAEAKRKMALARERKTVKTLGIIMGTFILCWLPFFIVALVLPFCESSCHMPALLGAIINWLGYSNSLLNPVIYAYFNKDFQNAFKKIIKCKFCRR
The series can be described thus: Ability to displace [3H]-8-OH-DPAT from rat hippocampal homogenate 5-hydroxytryptamine 1A receptor. It counts as tissue-based, Hippocampus.

Series [2] addresses T2, 5-hydroxytryptamine receptor 2A (Rattus norvegicus, UniProt P14842). The series can be described thus: Effect on phosphoinositide hydrolysis in NIH 3T3 fibroblast expressing 5-hydroxytryptamine 2A receptor. It counts as functional.
For series [3], the target named is T2, 5-hydroxytryptamine receptor 2A. The series can be described thus: Ability to displace [3H]ketanserin from rat cortical homogenate 5-hydroxytryptamine 2A receptor.
Series [4] concerns the target T3, 5-hydroxytryptamine receptor 2B (Homo sapiens, UniProt P41595). The series can be described thus: Agonist activity at cloned human 5-hydroxytryptamine 2B receptor using [3H]5-HT radioligand. It counts as binding.
For series [5], the target named is T3, 5-hydroxytryptamine receptor 2B. The series can be described thus: Antagonist activity at cloned human 5-hydroxytryptamine 2B receptor using [3H]rauwolscine radioligand.
Series [6] deals with T4, 5-hydroxytryptamine receptor 2C (Rattus norvegicus, UniProt P08909).
T4 sequence (P08909 whole entry): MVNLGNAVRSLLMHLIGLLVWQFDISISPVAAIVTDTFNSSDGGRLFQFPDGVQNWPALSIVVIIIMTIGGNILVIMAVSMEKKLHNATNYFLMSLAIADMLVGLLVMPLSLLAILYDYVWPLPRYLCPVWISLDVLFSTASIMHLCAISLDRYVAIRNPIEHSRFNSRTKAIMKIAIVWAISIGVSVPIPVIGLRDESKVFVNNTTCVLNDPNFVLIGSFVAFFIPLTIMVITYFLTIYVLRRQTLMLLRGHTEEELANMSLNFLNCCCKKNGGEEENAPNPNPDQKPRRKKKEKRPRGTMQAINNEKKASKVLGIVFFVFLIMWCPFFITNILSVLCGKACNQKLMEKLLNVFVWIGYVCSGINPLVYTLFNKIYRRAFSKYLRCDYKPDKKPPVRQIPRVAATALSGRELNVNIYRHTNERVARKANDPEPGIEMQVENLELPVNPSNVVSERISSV
The series can be described thus: Effect on phosphoinositide hydrolysis in NIH 3T3 fibroblast 5-hydroxytryptamine 2C receptor. It counts as functional.

In series [7] the target is T5, 5-hydroxytryptamine receptor 2C (Homo sapiens, UniProt P28335).
T5 sequence (P28335 whole entry): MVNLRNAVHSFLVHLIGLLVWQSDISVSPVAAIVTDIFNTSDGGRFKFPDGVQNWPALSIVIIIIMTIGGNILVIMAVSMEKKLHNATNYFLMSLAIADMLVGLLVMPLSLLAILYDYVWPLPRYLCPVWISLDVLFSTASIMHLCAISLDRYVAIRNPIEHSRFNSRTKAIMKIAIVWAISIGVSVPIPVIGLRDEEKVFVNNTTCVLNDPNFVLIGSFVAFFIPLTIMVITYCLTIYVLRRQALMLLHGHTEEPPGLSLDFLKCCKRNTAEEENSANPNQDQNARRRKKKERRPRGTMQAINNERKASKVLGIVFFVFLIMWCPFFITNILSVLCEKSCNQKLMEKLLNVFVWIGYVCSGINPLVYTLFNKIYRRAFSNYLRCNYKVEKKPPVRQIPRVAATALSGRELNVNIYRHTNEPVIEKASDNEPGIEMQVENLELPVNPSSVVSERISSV
The series can be described thus: Agonist activity at cloned human 5-hydroxytryptamine 2C receptor using [125I]DOI radioligand. Type of series: binding.

For series [8], the target named is T5, 5-hydroxytryptamine receptor 2C. The series can be described thus: Antagonist activity at cloned human 5-hydroxytryptamine 2C receptor using [3H]mesulergine radioligand.
The species named for series [9] is Rattus norvegicus. The series can be described thus: Effective dose showing 29% Drug Discrimination in LSD trained rats (number of animals tested = 8-12). Type of series: functional.
The species named for series [10] is Rattus norvegicus. The series can be described thus: Ability to inhibit accumulation [3H]5-HT in rat whole brain synaptosomes. It counts as functional.
The species named for series [11] is Rattus norvegicus. The series can be described thus: Ability to inhibit accumulation [3H]DA in rat whole brain synaptosomes. Type of series: functional.
The target of series [12] is T6, 5-hydroxytryptamine receptor 2A (Homo sapiens, UniProt P28223). The series can be described thus: Agonist activity at cloned human 5-hydroxytryptamine 2A receptor using [125I]DOI radioligand.
T6 sequence (P28223 whole entry): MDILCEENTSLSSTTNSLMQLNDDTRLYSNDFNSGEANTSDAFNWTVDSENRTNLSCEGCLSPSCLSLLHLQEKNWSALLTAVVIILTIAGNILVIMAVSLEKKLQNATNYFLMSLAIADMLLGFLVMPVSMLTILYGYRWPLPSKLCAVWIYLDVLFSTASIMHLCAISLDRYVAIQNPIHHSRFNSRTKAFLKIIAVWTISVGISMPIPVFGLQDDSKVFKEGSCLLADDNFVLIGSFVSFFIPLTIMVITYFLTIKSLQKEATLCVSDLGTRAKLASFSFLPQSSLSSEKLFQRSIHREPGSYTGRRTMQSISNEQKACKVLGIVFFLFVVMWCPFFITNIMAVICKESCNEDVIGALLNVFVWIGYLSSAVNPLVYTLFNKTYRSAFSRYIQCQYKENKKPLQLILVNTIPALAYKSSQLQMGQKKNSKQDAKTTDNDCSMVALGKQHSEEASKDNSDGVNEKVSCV
Series [13] has as its target T6, 5-hydroxytryptamine receptor 2A. The series can be described thus: Antagonist activity at cloned human 5-hydroxytryptamine 2A receptor using [3H]-Ketanserin radioligand.
Series [14] has as its target T2, 5-hydroxytryptamine receptor 2A. The series can be described thus: Effect on phosphoinositide hydrolysis in NIH 3T3 fibroblast 5-hydroxytryptamine 2A receptor. It counts as functional.
The target of series [15] is T3, 5-hydroxytryptamine receptor 2B. The series can be described thus: Antagonist activity at cloned human 5-hydroxytryptamine 2B receptor using [3H]- rauwolscine radioligand.
The species named for series [16] is Rattus norvegicus. The series can be described thus: Effective dose showing 50% Drug Discrimination in LSD trained rats (number of animals tested = 8-12). It counts as functional.
The nature of series [17]: Partition coefficient (logP). It counts as physicochemical. The following applies: octanol/water.

Broadly, the Ki is the dissociation constant of the complex between target and ligand, obtained from inhibition or displacement. A low value points to a stronger hold on the target. The term EC50 denotes the concentration that produces a half-maximal response. Low values mean greater potency, high ones weaker potency. In general, ED50 refers to the dose at which the effect has come halfway, by size or by number of responders. Higher therefore signals a need for a large dose. Broadly, the IC50 is the point on the concentration scale where inhibition reaches its midpoint. Read a high IC50 as lower potency. The term logP denotes a log measure of how a compound divides between an organic and an aqueous phase.

T2 sequence (P14842 whole entry): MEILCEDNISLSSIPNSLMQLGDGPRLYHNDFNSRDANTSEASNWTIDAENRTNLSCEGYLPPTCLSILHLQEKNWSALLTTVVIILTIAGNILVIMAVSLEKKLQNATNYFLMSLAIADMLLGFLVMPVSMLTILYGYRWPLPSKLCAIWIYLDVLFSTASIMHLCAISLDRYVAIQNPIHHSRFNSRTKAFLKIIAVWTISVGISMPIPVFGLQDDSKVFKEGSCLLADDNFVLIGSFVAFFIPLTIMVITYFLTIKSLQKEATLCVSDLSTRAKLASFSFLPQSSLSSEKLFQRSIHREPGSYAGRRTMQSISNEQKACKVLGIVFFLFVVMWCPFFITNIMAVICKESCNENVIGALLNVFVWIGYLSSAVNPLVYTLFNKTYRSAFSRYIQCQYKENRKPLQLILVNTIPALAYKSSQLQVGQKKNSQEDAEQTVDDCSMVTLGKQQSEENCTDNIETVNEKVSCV
T3 sequence (P41595 whole entry): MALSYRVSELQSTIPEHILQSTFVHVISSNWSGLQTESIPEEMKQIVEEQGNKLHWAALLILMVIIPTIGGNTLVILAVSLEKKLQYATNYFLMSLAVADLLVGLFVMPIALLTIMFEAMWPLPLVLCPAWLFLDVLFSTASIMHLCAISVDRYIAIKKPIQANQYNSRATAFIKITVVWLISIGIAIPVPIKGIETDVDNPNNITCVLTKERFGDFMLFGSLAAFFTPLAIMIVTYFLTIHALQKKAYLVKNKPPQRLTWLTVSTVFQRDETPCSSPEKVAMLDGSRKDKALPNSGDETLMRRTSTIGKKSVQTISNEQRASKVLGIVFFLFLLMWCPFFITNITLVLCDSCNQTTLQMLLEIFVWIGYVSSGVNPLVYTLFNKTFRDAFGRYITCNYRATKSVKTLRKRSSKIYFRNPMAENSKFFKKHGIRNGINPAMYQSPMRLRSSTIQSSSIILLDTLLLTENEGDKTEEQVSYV

As for `COc1cc(CCN)c2c(c1OC)OCC2`, the inhibitory constant (Ki) was found to be 6.2 µM in series [1]; 2.5 µM in series [3]; 0.523 µM in series [4]; 0.311 µM in series [5]; 0.118 µM in series [7]; 1.1 µM in [8]. Further, the EC50 in series [2] was 3 µM; in [6] it was 2 µM. Besides, in the series listed under Rattus norvegicus [9], the ED50 was determined as 57.8 µmol/kg. The 50% inhibitory concentration (IC50) in the series filed under Rattus norvegicus [10] and in the series listed under Rattus norvegicus [11] was greater than 10 µM each time.
Regarding `COc1c2c(c(CCN)c3c1OCC3)CCO2`, the Ki came to 0.335 µM in [12]; 4.44 µM in [13]; 0.301 µM in series [4]; 0.205 µM in series [15]; 0.0615 µM in series [7]; 0.654 µM in series [8]. The EC50 in series [14] came out at 2 µM; in series [6], 1 µM. The same molecule registered a 50% effective dose (ED50) in the series listed under Rattus norvegicus [9] of 55.2 µmol/kg. Moreover, the half-inhibitory concentration (IC50) in the series filed under Rattus norvegicus [10] and in the series filed under Rattus norvegicus [11] was greater than 10 µM each time.
For `CCOc1c(OC)cc(CCN)cc1OC`, the inhibitory constant (Ki) in series [1] came out at 6.9 µM; in series [12], 0.216 µM; in [3], 2.1 µM; in series [4], 0.555 µM; in series [7], 0.177 µM. The 50% effective concentration (EC50) in series [14] came out at 4 µM; in [6], 2 µM. For the same molecule, in the series listed under Rattus norvegicus [16], the 50% effective dose (ED50) was determined as 16.2 µmol/kg. For the same molecule, the IC50 in the series filed under Rattus norvegicus [10] and in the series listed under Rattus norvegicus [11] was greater than 10 µM throughout.
Regarding `COc1cc(CCN)cc(OC)c1OC` [MESCALINE], the Ki in [1] came to 6.9 µM; in series [12] it was 0.551 µM; in series [3], 5.5 µM; in series [4], 0.795 µM; in [7] it was 0.303 µM. Also, the EC50 in series [14] amounted to 4 µM; in [6], 24 µM. Also, in series [17], the lipophilicity (logP) was determined as 3.15. In addition, the 50% effect level in the series filed under Rattus norvegicus [16] (ED50) was put at a dose of 33.5 µmol/kg. In addition, the IC50 in the series filed under Rattus norvegicus [10] and in the series listed under Rattus norvegicus [11] was greater than 10 µM each time.
